Source: paper PMC9090415, “Discovery of small molecule inhibitors of Plasmodium falciparum apicoplast DNA polymerase” (Journal of Enzyme Inhibition and Medicinal Chemistry, 2022)

Biological target: P. falciparum apicoplast DNA polymerase (Pf-apPOL) (Plasmodium falciparum, UniProt Q8ILY1)
Test: Fluorescence-based high-throughput DNA polymerase assay (molecular beacon), primary screen and dose-response;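 as to % inhibition Apol 40': compound concentration given in µM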
Format: biochemical
Conditions: for DNA Pol: 90 min, 10 µM
Method in brief: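 Single-point screening used 10 µM compound with 20 nM polymerase, 20 nM hairpin substrate and 6 µM dNTPs for 90 min at 25 °C. Confirmatory titrations (2.5–80 µM) followed fluorescence at three times, and IC50 was derived from a fit including a cooperativity term n.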

Sequence of P. falciparum apicoplast DNA polymerase (Pf-apPOL) (Q8ILY1 entry or part of it): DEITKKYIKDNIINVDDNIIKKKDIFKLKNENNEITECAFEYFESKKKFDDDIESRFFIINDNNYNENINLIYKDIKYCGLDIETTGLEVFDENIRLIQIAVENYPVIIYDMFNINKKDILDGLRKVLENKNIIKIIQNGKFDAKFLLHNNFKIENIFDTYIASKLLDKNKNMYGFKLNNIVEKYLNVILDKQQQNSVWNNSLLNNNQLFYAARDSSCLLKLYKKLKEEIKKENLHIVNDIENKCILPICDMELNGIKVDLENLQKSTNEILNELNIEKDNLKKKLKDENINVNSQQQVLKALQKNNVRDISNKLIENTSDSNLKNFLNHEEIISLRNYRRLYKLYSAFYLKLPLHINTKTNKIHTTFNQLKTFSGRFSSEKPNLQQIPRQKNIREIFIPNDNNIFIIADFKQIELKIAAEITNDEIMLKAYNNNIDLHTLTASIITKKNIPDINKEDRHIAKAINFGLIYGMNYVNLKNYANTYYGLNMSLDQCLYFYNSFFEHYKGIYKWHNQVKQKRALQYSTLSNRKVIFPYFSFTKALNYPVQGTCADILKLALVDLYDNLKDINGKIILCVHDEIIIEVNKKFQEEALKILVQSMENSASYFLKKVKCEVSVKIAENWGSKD

CCC(C)NC(=O)c1cc(NC(C)=O)cc2nc(C)ccc12 (centres unmarked) [KU0206314]
DNA Pol ('DNA Pol' of the 186 hits list (primary screen value)): 24
DNA Pol (DNA Pol (primary screen value)): 24
% inhibition Apo pol 10' (DRC-1, concentration 2.5): 2.024%
% inhibition Apo pol 10' (DRC-1, concentration 5): 11.6857%
% inhibition Apo pol 10' (DRC-1, concentration 10): 27.7087%
% inhibition Apo pol 10' (DRC-1, concentration 20): 37.1675%
% inhibition Apo pol 10' (DRC-1, concentration 40): 74.587%
% inhibition Apo pol 10' (DRC-1, concentration 80): 89.0945%
% inhibition Apol 90' (DRC-1, concentration 2.5): -1.658%
% inhibition Apol 90' (DRC-1, concentration 5): 3.672%
% inhibition Apol 90' (DRC-1, concentration 10): 15.6061%
% inhibition Apol 90' (DRC-1, concentration 20): 20.1807%
% inhibition Apol 90' (DRC-1, concentration 40): 54.0066%
% inhibition Apol 90' (DRC-1, concentration 80): 77.404%
% inhibition apPOL 180' (DRC-1, concentration 2.5): -4.723%
% inhibition apPOL 180' (DRC-1, concentration 5): -1.48%
% inhibition apPOL 180' (DRC-1, concentration 10): 7.7142%
% inhibition apPOL 180' (DRC-1, concentration 20): 9.245%
% inhibition apPOL 180' (DRC-1, concentration 40): 37.6309%
% inhibition apPOL 180' (DRC-1, concentration 80): 66.384%
% inhibition Apo pol 5' (DRC-2, concentration 2.5): 10%
% inhibition Apo pol 5' (DRC-2, concentration 5): 11%
% inhibition Apo pol 5' (DRC-2, concentration 10): 29%
% inhibition Apo pol 5' (DRC-2, concentration 20): 42%
% inhibition Apo pol 5' (DRC-2, concentration 40): 49%
% inhibition Apo pol 5' (DRC-2, concentration 80): 53%
% inhibition Apol 40' (DRC-2, concentration 2.5): 7%
% inhibition Apol 40' (DRC-2, concentration 5): 7%
% inhibition Apol 40' (DRC-2, concentration 10): 25%
% inhibition Apol 40' (DRC-2, concentration 20): 40%
% inhibition Apol 40' (DRC-2, concentration 40): 58%
% inhibition Apol 40' (DRC-2, concentration 80): 70%
% inhibition ApPOL 90' (DRC-2, concentration 2.5): 5.39%
% inhibition ApPOL 90' (DRC-2, concentration 5): 6%
% inhibition ApPOL 90' (DRC-2, concentration 10): 21%
% inhibition ApPOL 90' (DRC-2, concentration 20): 35%
% inhibition ApPOL 90' (DRC-2, concentration 40): 57%
% inhibition ApPOL 90' (DRC-2, concentration 80): 73%
% inhibition apPOL 180' (DRC-2, concentration 2.5): 1.48%
% inhibition apPOL 180' (DRC-2, concentration 5): 0.928%
% inhibition apPOL 180' (DRC-2, concentration 10): 12%
% inhibition apPOL 180' (DRC-2, concentration 20): 23%
% inhibition apPOL 180' (DRC-2, concentration 40): 48%
% inhibition apPOL 180' (DRC-2, concentration 80): 72%
